Assay results published in paper PMC12858467, “In vitro toxicokinetics and metabolic profiling of methoxycathinones and methylthiocathinones using human liver systems and hyphenated mass spectrometry” (Archives of Toxicology, 2025).
Read-outs that look alike come from different tables or passages of the source.

What was measured:
[1] = In vitro plasma protein binding (ultrafiltration, Centrifree); format: in vitro ADME; conditions: human, pooled human blood plasma, 30 min, 37 °C, ultrafiltration
Experimental: (§1) PPB was investigated according to a previous study with minor modifications (Kroesen et al. [2025]). Fresh and pooled human blood plasma (450 µL) was spiked with 50 µL of a 5 µM methanolic solution of 4MeO-NE-BP, 4MeO-αP-BP, 4MeO-αP-VP, 4MeS-NE-BP, 4MeS-αP-BP, or 4MeS-αMor-PrP. The mixture was incubated for 30 min at 37 °C and with gentle shaking at 200 rpm. […] The Centrifree devices were centrifuged for 35 min at 1600 × g to obtain 100 µL of the ultrafiltrate (UF). […] Experiments were performed in quadruplicate. Fraction unbound (fu) and PPB were determined by comparing the area ratios of the compound and trimipramine-d3 as an internal standard in the UF and GA using the following equations:1 fu=peak area ratiocompoundUF/ISUF/peak area ratiocompoundGA/ISGA 2 PPB[\%]=1-fu∗100.

[2] = system: plasma proteins (pooled human blood plasma); assay: as above; format: in vitro ADME
Experimental: as §1

[3] = system: pooled human liver S9 fraction (pHLS9) and HepaRG cells; assay: In vitro metabolism by pHLS9 and HepaRG cells (LC-HRMS/MS metabolite identification); format: in vitro ADME; conditions: 25 µM substrate
[4] = molecular target: T1, CYP1A2 (Homo sapiens, UniProt P05177); assay: Monooxygenases activity screening, CYP1A2; format: in vitro ADME; design: key: +, detected; -, not detected; conditions: substrate 4MeS-NE-BP 25 µM, 30 min, 37 °C; Table S3.4
T1 construct: purchased Discovery Life Sciences (Huntsville, LA, USA); host or cells: baculovirus-infected insect cells (microsomes, Supersomes)
T1 sequence (P05177 1-516): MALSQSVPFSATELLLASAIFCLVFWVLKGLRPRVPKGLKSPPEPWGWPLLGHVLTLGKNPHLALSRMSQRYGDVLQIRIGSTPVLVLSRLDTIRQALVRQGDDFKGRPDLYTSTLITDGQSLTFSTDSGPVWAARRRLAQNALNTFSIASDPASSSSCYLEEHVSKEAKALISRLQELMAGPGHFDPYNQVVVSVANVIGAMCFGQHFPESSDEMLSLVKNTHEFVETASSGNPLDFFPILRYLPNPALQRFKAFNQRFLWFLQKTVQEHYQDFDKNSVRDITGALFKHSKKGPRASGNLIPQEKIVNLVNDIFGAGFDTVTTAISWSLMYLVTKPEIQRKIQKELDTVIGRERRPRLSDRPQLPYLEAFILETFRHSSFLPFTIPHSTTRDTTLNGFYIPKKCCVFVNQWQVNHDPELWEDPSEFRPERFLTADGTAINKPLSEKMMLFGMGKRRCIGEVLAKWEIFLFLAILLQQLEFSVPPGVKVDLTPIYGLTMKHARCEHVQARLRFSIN
Experimental: (§2) For incubations with CYP2A6 or CYP2C9, phosphate buffer was replaced with 90 mM Tris buffer, according to the manufacturer’s guideline. […] All incubations were done in duplicate and concentrations were fixed. Verapamil (25 µM) was incubated as a positive control.

[5] = molecular target: T2, CYP2A6 (Homo sapiens, UniProt P11509); assay: Monooxygenases activity screening, CYP2A6; format: in vitro ADME; design: key: +, detected; -, not detected; conditions: substrate 4MeS-NE-BP 25 µM, 30 min, 37 °C; Table S3.4
T2 construct: purchased Discovery Life Sciences (Huntsville, LA, USA); host or cells: baculovirus-infected insect cells (microsomes, Supersomes)
T2 sequence (P11509 1-494): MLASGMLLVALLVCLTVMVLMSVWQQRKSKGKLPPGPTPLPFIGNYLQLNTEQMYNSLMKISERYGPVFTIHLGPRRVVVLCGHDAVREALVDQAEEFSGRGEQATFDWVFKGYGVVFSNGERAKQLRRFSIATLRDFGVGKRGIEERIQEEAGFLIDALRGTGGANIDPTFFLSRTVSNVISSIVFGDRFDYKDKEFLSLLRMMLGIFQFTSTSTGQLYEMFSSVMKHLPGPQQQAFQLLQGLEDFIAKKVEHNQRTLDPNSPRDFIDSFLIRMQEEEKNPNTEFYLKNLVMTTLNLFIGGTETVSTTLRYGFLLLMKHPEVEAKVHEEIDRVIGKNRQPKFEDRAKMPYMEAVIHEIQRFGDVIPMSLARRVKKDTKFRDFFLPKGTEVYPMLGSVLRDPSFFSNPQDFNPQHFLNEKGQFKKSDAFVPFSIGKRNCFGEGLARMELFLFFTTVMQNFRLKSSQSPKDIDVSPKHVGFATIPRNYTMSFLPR
Experimental: as §2

[6] = molecular target: T3, CYP2B6 (Homo sapiens, UniProt P20813); assay: Monooxygenases activity screening, CYP2B6; format: in vitro ADME; design: key: +, detected; -, not detected; conditions: substrate 4MeS-NE-BP 25 µM, 30 min, 37 °C; Table S3.4
T3 construct: purchased Discovery Life Sciences (Huntsville, LA, USA); host or cells: baculovirus-infected insect cells (microsomes, Supersomes)
T3 sequence (P20813 1-491): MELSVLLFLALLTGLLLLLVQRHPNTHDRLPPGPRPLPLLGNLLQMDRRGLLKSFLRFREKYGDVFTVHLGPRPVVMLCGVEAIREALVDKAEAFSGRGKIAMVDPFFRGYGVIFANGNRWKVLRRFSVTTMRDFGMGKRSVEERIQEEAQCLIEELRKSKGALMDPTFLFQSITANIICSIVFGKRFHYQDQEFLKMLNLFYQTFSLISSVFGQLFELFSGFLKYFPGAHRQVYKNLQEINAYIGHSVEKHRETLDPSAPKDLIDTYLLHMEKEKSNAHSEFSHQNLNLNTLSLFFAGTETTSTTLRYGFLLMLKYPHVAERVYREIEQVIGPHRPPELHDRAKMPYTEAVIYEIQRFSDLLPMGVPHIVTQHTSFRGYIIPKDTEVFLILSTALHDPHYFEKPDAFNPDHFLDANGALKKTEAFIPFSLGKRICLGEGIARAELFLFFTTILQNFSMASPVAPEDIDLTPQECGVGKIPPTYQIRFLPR
Experimental: as §2

[7] = molecular target: T4, CYP2C8 (Homo sapiens, UniProt P10632); assay: Monooxygenases activity screening, CYP2C8; format: in vitro ADME; design: key: +, detected; -, not detected; conditions: substrate 4MeS-NE-BP 25 µM, 30 min, 37 °C; Table S3.4
T4 construct: purchased Discovery Life Sciences (Huntsville, LA, USA); host or cells: baculovirus-infected insect cells (microsomes, Supersomes)
T4 sequence (P10632 1-490): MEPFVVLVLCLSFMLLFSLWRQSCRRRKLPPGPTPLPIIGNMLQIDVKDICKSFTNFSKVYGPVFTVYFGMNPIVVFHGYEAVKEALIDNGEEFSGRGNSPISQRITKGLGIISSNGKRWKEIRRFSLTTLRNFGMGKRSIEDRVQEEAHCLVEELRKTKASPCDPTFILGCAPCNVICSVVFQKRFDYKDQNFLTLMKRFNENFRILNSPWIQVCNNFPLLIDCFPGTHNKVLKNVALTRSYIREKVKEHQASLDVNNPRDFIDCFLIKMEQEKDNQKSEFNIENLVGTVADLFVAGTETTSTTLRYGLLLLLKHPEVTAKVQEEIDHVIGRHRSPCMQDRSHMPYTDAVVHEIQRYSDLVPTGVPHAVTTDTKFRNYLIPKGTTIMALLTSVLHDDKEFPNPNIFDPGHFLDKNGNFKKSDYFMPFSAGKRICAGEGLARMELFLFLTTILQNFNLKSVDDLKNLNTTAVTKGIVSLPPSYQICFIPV
Experimental: as §2

[8] = molecular target: T5, CYP2C9 (Homo sapiens, UniProt P11712); assay: Monooxygenases activity screening, CYP2C9; format: in vitro ADME; design: key: +, detected; -, not detected; conditions: substrate 4MeS-NE-BP 25 µM, 30 min, 37 °C; Table S3.4
T5 construct: purchased Discovery Life Sciences (Huntsville, LA, USA); host or cells: baculovirus-infected insect cells (microsomes, Supersomes)
Experimental: as §2

[9] = molecular target: T6, CYP2C19 (Homo sapiens, UniProt P33261); assay: Monooxygenases activity screening, CYP2C19; format: in vitro ADME; design: key: +, detected; -, not detected; conditions: substrate 4MeS-NE-BP 25 µM, 30 min, 37 °C; Table S3.4
T6 construct: purchased Discovery Life Sciences (Huntsville, LA, USA); host or cells: baculovirus-infected insect cells (microsomes, Supersomes)
Experimental: as §2

[10] = molecular target: T7, CYP2D6 (Homo sapiens, UniProt P10635); assay: Monooxygenases activity screening, CYP2D6; format: in vitro ADME; design: key to one-step metabolite detected in CYP2D6 incubation: +, detected; -, not detected; conditions: substrate 4MeS-NE-BP 25 µM, 30 min, 37 °C; Table S3.4
T7 construct: purchased Discovery Life Sciences (Huntsville, LA, USA); host or cells: baculovirus-infected insect cells (microsomes, Supersomes)
Experimental: as §2

[11] = molecular target: T8, CYP2E1 (Homo sapiens, UniProt P05181); assay: Monooxygenases activity screening, CYP2E1; format: in vitro ADME; design: key: +, detected; -, not detected; conditions: substrate 4MeS-NE-BP 25 µM, 30 min, 37 °C; Table S3.4
T8 construct: purchased Discovery Life Sciences (Huntsville, LA, USA); host or cells: baculovirus-infected insect cells (microsomes, Supersomes)
Experimental: as §2

[12] = molecular target: T9, CYP3A4 (Homo sapiens, UniProt P08684); assay: Monooxygenases activity screening, CYP3A4; format: in vitro ADME; design: key: +, detected; -, not detected; conditions: substrate 4MeS-NE-BP 25 µM, 30 min, 37 °C; Table S3.4
T9 construct: purchased Discovery Life Sciences (Huntsville, LA, USA); host or cells: baculovirus-infected insect cells (microsomes, Supersomes)
Experimental: as §2

[13] = molecular target: T10, CYP3A5 (Homo sapiens, UniProt P20815); assay: Monooxygenases activity screening, CYP3A5; format: in vitro ADME; design: key: +, detected; -, not detected; conditions: substrate 4MeS-NE-BP 25 µM, 30 min, 37 °C; Table S3.4
T10 construct: purchased Discovery Life Sciences (Huntsville, LA, USA); host or cells: baculovirus-infected insect cells (microsomes, Supersomes)
Experimental: as §2

[14] = molecular target: T11, flavin-containing monooxygenase 3 (FMO3) (Homo sapiens, UniProt P31513); assay: Monooxygenases activity screening, FMO3; format: in vitro ADME; design: key: +, detected; -, not detected; conditions: substrate 4MeS-NE-BP 25 µM, 30 min, 37 °C; Table S3.4
T11 construct: purchased Discovery Life Sciences (Huntsville, LA, USA); host or cells: baculovirus-infected insect cells (microsomes, Supersomes)
T11 sequence (P31513 1-532): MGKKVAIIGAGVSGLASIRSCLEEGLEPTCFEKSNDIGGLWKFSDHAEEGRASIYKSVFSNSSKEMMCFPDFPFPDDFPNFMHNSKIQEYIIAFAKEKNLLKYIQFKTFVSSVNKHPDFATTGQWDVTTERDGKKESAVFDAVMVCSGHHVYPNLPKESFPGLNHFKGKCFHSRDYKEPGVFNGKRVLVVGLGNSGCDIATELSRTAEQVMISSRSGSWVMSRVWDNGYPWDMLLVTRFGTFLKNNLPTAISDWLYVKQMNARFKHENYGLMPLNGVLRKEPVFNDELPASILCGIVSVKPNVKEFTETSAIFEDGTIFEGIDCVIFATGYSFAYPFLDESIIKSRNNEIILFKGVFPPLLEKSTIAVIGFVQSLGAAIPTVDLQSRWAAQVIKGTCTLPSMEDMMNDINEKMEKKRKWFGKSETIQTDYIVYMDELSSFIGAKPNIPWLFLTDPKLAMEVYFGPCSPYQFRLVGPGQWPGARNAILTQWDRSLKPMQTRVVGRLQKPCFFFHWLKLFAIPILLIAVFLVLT
Experimental: as §2

[15] = system: HepaRG cells; assay: Incubations using HepaRG cells; conditions: 25 µM parent, 24 h
Experimental: Cell incubations were performed in a monolayer assay (Kroesen et al. [2025]) and in accordance with the manufacturer’s instructions.
All incubations were performed in triplicate, with each well containing 0.5% (v/v) DMSO. Following incubation, 50 µL of the medium supernatant was transferred to a new reaction tube and precipitated with 30 µL of acetonitrile cooled to −20 °C, containing 2.5 µM trimipramine-d3 as an internal standard. […] The mixture was vortexed and centrifuged for 2 min at 18,407 × g. A volume of 70 µL of the supernatant was transferred into an autosampler vial and 5 µL was injected onto the LC–HRMS/MS system.
HepaRG cells were thawed and resuspended in 13.5 mL (~ 740,000 cells/mL) thaw
and seed medium at 37 °C. Thaw and seed medium consisted of Williams E medium,
100 U/mL penicillin, 100 µg/mL streptomycin, GlutaMAX, and HPRG670 supplement.
Cells were handled under sterile conditions using a laminar flow bench class II (Thermo
Scientific, TF, Schwerte, Germany). Aliquots of 100 µL cell suspension were seeded
on collagen-coated 96-well plates (~ 74,000 cells/well). Evaporation was minimized by
filling the outer wells with 100 µL thaw and seed medium. Cells were preincubated for
4 h in an incubator (Binder, Tuttlingen, Germany) at 37 °C, 95 % air humidity, and 5 %
CO2. After preincubation, 50 µL of the thaw and seed medium was replaced with 50 µL
solution of each cathinone (25 µM) in thaw and seed medium, followed by an
incubation for 24 h at 37 °C, 95 % air humidity, and 5 % CO2 atmosphere.
A Thermo Fisher ( TF, Dreieich, Germany) Dionex UltiMate 3000 RS pump consisting
of a degasser, a quaternary pump, and an autosampler, coupled to a TF Q Exactive
Plus system equipped with a heated electrospray ionization (HESI)-II source were
used. A mass calibration was done according to the manufacturer's recommendations
using external mass calibration prior to analysis. Gradient elution was performed on a
TF Accucore PhenylHexyl column (100 mm x 2.1 mm, 2.6 μm) with a 2 mM aqueous
ammonium formate solution containing 0.1 % (v/v) formic acid (pH 3, eluent A) and 2
mM ammonium formate solution in acetonitrile/methanol (50:50, v/v) containing 0.1 %
(v/v) formic acid, and 1 % (v/v) water (eluent B). The gradient was stepped as follows:
hold 99 % A. Initial flow rate from 0–9.5 min was 500 μL/min and final flow rate was
800 μL/min from 9.5–11.5 min. Mass spectrometry was performed using full scan data
and a subsequent data-dependent acquisition (DDA) with priority to mass-to-charge
ratios (m/z) of parent compounds and their expected metabolites. The inclusion list
contained m/z values of likely formed metabolites such as O- or S-desmethyl, hydroxy,
and oxo reduction metabolites (phase I) as well as sulfates, glucuronides (phase II),
and combinations thereof.
TF Xcalibur Qual Browser software […]

[16] = system: pooled human liver S9 fraction (pHLS9); assay: Incubations using pooled human liver S9 fraction; conditions: 25 µM parent, 60 and 360 min
Experimental: In short, 25 μg/mL alamethicin (UGT reaction mix B), pHLS9 (2 mg microsomal protein/mL), 2.5 mM isocitrate, 0.8 U/mL isocitrate dehydrogenase, 100 U/mL superoxide dismutase, 0.6 mM NADP^+, and 2.5 mM Mg^2+ were preincubated for 10 min at 37 °C. Then, 2.5 mM UDP-glucuronic acid (UGT reaction mix A), 40 µM PAPS, 1.2 mM SAM, 1 mM DTT, and 10 mM GSH were added. The reaction was started by adding the substrate (25 µM each, final), resulting in a final incubation volume of 150 µL. MDMA or quetiapine (25 µM and 250 µM final concentrations) was incubated as positive controls. […] Incubations were performed in triplicate and organic solvent in the incubation mixture was below 1% (Chauret et al. [1998]). After an incubation time of 60 and 360 min, aliquots (50 µL) were transferred to a new reaction tube. The reaction was stopped with 30 µL acetonitrile (−20 °C) containing 2.5 µM trimipramine-d3 as an internal standard. Samples were vortexed, stored at −20 °C for 30 min, and centrifuged for 2 min at 18,407 × g. 70 µL of the supernatant were transferred to autosampler vials and 5 µL was injected onto the LC–HRMS/MS system.

T6 sequence (P33261 whole entry): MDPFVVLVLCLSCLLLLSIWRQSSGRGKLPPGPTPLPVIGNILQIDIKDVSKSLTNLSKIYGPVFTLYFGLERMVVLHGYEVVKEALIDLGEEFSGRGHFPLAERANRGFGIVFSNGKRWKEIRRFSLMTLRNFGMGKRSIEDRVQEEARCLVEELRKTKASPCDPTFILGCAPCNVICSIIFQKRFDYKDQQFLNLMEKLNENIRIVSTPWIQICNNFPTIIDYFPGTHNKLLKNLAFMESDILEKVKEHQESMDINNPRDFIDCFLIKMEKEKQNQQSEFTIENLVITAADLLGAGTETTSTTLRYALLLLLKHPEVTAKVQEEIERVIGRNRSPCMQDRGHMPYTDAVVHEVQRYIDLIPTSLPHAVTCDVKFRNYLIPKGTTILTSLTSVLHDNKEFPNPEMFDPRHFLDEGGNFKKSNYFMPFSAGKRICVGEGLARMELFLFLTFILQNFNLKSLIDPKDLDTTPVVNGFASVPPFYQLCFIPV
T8 sequence (P05181 whole entry): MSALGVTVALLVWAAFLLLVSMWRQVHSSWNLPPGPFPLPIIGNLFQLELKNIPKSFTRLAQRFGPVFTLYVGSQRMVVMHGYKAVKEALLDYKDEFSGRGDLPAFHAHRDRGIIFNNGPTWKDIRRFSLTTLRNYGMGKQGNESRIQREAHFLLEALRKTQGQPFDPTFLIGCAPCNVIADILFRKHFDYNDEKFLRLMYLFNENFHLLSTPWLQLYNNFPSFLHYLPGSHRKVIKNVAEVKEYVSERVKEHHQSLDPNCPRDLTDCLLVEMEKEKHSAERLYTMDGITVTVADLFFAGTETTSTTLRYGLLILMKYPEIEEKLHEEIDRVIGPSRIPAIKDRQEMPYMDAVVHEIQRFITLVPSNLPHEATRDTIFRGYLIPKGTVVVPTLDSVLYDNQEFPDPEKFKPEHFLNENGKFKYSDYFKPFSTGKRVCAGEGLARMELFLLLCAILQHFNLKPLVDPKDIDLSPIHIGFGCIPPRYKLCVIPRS
T5 sequence (P11712 whole entry): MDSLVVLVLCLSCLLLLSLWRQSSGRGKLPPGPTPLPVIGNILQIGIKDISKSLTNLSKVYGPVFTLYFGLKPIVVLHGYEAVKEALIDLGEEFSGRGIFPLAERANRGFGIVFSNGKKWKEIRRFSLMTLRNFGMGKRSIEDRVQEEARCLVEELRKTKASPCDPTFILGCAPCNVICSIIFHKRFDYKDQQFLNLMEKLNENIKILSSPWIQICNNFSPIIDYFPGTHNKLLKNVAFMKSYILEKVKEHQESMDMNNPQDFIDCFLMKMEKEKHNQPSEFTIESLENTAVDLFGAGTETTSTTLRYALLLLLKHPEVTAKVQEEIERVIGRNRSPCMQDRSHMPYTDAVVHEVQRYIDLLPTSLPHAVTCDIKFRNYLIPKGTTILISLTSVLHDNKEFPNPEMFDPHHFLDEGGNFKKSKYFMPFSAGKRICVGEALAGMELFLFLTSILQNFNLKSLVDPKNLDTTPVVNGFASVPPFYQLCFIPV
T10 sequence (P20815 whole entry): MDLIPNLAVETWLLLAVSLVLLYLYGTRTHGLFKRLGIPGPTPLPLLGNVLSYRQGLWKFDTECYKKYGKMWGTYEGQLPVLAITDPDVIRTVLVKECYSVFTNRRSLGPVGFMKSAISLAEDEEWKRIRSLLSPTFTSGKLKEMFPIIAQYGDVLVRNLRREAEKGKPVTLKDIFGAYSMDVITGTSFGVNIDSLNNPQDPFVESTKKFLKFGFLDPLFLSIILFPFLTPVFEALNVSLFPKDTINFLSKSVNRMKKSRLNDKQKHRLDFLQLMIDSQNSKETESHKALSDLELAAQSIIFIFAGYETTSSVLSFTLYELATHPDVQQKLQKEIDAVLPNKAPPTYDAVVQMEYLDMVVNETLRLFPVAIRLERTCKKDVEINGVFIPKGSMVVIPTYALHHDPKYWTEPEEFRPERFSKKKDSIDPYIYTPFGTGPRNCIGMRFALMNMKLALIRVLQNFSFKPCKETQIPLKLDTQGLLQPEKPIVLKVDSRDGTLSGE
T9 sequence (P08684 whole entry): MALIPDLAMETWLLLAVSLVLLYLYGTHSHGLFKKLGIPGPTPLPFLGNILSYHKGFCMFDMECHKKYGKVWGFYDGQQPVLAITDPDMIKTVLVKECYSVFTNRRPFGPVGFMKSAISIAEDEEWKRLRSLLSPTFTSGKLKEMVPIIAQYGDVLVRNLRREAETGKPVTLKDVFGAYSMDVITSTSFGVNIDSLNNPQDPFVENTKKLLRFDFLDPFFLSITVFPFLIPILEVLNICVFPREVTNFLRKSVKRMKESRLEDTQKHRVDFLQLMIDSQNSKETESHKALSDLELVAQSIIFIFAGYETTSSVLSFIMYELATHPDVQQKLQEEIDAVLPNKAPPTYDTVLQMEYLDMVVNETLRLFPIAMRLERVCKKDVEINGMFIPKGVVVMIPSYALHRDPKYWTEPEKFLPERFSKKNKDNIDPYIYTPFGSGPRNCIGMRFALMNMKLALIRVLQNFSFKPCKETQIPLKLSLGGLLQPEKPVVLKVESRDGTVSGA
T7 sequence (P10635 whole entry): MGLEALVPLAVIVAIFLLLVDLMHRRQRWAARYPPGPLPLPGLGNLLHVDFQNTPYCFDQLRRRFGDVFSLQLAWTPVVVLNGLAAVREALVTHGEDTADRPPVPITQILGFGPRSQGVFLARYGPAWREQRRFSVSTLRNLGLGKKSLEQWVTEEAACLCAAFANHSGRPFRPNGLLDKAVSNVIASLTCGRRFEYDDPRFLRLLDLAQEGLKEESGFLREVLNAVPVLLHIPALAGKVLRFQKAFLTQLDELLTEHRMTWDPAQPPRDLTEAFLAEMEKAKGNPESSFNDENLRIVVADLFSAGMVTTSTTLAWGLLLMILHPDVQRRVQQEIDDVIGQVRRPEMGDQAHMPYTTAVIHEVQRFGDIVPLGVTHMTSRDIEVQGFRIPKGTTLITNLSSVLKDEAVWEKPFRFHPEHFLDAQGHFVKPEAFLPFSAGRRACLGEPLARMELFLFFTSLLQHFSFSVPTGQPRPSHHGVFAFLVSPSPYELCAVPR

CCNC(CC)C(=O)c1ccc(OC)cc1 (stereo not drawn) [Compound 4MeO-NE-BP, 4’-methoxy-N-ethylbutyrophenone]
fraction unbound at 30 min, 0.5 µM ([1]; read-out: PPB, % (converted)): > 0.5 | fraction unbound at 30 min, 0.5 µM ([1]; read-out: fu (unbound fraction)): 0.61 | Plasma protein binding, class in words [2]: low | PPB, % ([2]; 30 min, 37 °C, ultrafiltration): 39% | metabolic reactions (metabolite IDs) identified [3]: O-demethylation (MO1.1), hydroxylation (MO1.2), N-dealkylation (MO1.3), hydroxylamine formation (MO1.4), and O-demethylation + sulfation (MO1.5) | number of metabolites tentatively identified [3]: 5

CCC(C(=O)c1ccc(SC)cc1)N(O)CC (stereo not drawn) [MT1.4]
one-step metabolite detected in CYP1A2 incubation [4]: + | one-step metabolite detected in CYP2A6 incubation [5]: - | one-step metabolite detected in CYP2B6 incubation [6]: - | one-step metabolite detected in CYP2C8 incubation [7]: - | one-step metabolite detected in CYP2C9 incubation [8]: - | one-step metabolite detected in CYP2C19 incubation [9]: - | one-step metabolite detected in CYP2D6 incubation [10]: + | one-step metabolite detected in CYP2E1 incubation [11]: - | one-step metabolite detected in CYP3A4 incubation [12]: + | one-step metabolite detected in CYP3A5 incubation [13]: + | one-step metabolite detected in FMO3 incubation [14]: + | metabolite detection in HepaRG incubations [15]: only detected in HepaRG incubations

CCC(N)C(=O)c1ccc(SC)cc1 (stereo not drawn) [MT2.5]
metabolite detection in HepaRG incubations [15]: only detected in HepaRG incubations

CCCC(C(=O)c1ccc(OC2OC(C(=O)O)C(O)C(O)C2O)cc1)N1CCCC1 (stereo not drawn) [MO3.10]
metabolite detection in HepaRG incubations [15]: observed in HepaRG incubations | metabolite detection in pHLS9 [16]: could not be detected
